How the values were obtained:
mice = experiment: Tail flick test (analgesic activity, 49° C. water bath); type: in vivo
Experimental: Tail flick test is a test of the pain response in animals. Tail flick test is used in basic pain research and to measure the effectiveness of analgesics, by observing the tail flick reaction to heat in an animal. This test assesses the nociceptive response to a local pain stimulus, and the ability of a drug to inhibit this response.
Vehicle control (dimethyl sulfoxide, DMSO) and test compound 4-benzylsulfonyl-2-butenenitrile in DMSO were administered intraperitoneally to mice with a volume of 5 mL/kg, twice, at 30 minutes before the first tail flick measurement. The test compound was administered at a dosage of 50 mg/kg. The positive control compound morphine was administered by subcutaneous injection at 8 mg/kg with a volume of 8 mL/kg, at 30 minutes before the first tail flick measurement. Each group had 10 mice.
The response of mice to heat stimulus was evaluated by measuring the time of tail-flick or tail-flick latency from 49° C. water bath. Briefly, the animal was placed in a restrainer with its tail hanging down. Approximately 2 inches of the tail was immersed in a beaker of water at 38±1° C. for about 30 seconds, and this was done twice to acclimate the animal to the procedure.
Subsequently, approximately 2 inches of the tail was immersed in a beaker of water at 49±1° C., at which point a timer was started.
Tail flick measurements were made 30, 60 and 120 minutes post administration of the dosage of test compound. An ANOVA was done, and if p<0.05, a Dunnett's t test was employed to calculate significant difference between vehicle control and test compound treated groups. A pairwise Student's t test was used to calculate differences between the morphine group and the control group.

[1] = system: human peripheral blood mononuclear cells; experiment: Pro-inflammatory cytokine release from human peripheral blood mononuclear cells in vitro; type: cell-based; details: statement only, no data or method given

| Compound | tail flick latency compared with vehicle-treated mice (mice; 50 mg/kg intraperitoneal in DMSO, 30 minutes, p value=0.046) | tail flick latency compared with vehicle-treated mice (mice; 50 mg/kg intraperitoneal in DMSO, 120 minutes, p value=0.020) | inhibition of pro-inflammatory cytokine release (e.g., IL-1β, IL-6, TNFα, IL-4 and IFNγ) [1] | tail flick latency compared with vehicle-treated mice (mice; morphine 8 mg/kg subcutaneous injection, 30 minutes) | tail flick latency compared with vehicle-treated mice (mice; morphine 8 mg/kg subcutaneous injection, 60 minutes) | tail flick latency compared with vehicle-treated mice (mice; morphine 8 mg/kg subcutaneous injection, 120 minutes) |
| --- | --- | --- | --- | --- | --- | --- |
| N#CC=CCS(=O)(=O)Cc1ccccc1 (racemic) [4-benzylsulfonyl-2-butenenitrile] | statistically significant tail flick latency | statistically significant tail flick latency | effective in inhibiting pro-inflammatory cytokine release |  |  |  |
| CN1CC[C@]23c4c5ccc(O)c4O[C@H]2[C@@H](O)C=C[C@H]3[C@H]1C5 [Morphine, morphine] |  |  |  | statistically significant tail flick latency | statistically significant tail flick latency | not at 120 minutes |

Source: patent US9987246B2, “4-benzylsulfonyl-2-butenenitrile” (Olatec Therapeutics LLC, priority 2014, dated 2018)
